These results are taken from patent US12187773B2, “Modified GIP peptide analogues” (Antag Therapeutics ApS, priority 2018, dated 2025).

As usually defined, the pIC50 is the IC50 on a negative log10 scale, so that one unit is a factor of ten. The IC50 is the concentration that gives 50% inhibition.

Data set [1] can be described thus: Elimination half-life (T1/2) estimated in Göttingen minipigs. Format: in vivo.
The target of data set [2] is T1, GLP1 receptor (GLP1R) (Homo sapiens, UniProt P43220).
T1 construct: expressed in transfected cells; host or cells: COS-7 (transient)
T1 sequence (P43220 24-463, species assumed): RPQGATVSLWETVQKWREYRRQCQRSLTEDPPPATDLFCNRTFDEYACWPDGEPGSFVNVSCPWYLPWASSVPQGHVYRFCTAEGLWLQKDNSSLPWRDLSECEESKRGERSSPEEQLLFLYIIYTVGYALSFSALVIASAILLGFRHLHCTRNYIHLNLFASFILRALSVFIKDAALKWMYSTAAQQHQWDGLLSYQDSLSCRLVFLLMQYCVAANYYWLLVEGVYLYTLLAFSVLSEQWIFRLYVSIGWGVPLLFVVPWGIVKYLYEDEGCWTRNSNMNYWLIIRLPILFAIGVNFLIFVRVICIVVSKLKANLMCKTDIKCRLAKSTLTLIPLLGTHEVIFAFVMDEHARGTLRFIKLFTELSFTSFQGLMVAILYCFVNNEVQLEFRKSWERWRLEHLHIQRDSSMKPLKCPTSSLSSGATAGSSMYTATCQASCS
In words: cAMP assay - selectivity, antagonism at GLP1 receptor. Format: cell-based. The settings on record: Table 3A; COS-7 cells; agonist GLP1 at 50-80% of maximal cAMP. In general terms: Cyclic AMP is a second messenger, typically raised through Gs and lowered through Gi signalling.

The target of data set [3] is T2, glucagon receptor (GcgR) (Homo sapiens, UniProt P47871).
T2 construct: expressed in transfected cells; host or cells: COS-7 (transient)
T2 sequence (P47871 26-477, species assumed): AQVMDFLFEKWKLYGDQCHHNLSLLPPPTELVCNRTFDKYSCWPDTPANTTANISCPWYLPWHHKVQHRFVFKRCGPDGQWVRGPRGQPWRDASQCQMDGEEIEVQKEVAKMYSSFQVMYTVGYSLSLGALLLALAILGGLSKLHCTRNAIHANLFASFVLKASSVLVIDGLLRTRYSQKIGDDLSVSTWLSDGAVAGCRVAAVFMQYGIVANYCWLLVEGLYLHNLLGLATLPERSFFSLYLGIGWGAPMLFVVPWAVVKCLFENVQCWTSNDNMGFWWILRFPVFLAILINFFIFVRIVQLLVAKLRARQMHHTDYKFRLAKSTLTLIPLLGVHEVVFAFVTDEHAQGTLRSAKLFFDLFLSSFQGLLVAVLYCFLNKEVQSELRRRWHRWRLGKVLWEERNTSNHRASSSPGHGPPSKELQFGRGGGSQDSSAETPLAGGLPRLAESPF
In words: cAMP assay - selectivity, antagonism at glucagon receptor. Conditions: Table 3A; COS-7 cells; agonist glucagon at 50-80% of maximal cAMP. The format is cell-based.

For data set [4], the target named is T3, GLP2 receptor (GLP2R) (Homo sapiens, UniProt O95838).
T3 construct: expressed in transfected cells; host or cells: COS-7 (transient)
T3 sequence (O95838 1-553): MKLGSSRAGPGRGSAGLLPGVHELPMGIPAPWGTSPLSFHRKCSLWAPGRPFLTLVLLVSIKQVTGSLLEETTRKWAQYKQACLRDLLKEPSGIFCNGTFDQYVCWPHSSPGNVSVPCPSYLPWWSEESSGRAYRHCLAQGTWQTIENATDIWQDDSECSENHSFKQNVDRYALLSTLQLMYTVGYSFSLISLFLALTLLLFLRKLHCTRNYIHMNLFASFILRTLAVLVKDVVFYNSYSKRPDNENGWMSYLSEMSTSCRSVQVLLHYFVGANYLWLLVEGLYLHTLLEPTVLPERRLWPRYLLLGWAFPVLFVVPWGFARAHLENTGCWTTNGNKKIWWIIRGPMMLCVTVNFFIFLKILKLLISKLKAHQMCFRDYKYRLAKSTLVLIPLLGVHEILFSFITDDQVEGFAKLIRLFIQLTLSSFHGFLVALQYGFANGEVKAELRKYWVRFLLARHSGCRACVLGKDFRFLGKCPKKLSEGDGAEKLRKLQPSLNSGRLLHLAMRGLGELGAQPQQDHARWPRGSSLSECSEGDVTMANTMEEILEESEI
In words: cAMP assay - selectivity, antagonism at GLP2 receptor. Format: cell-based. The settings on record: Table 3B; COS-7 cells; agonist GLP2.

The target in data set [5] is T4, human GIP receptor (Homo sapiens, UniProt P48546).
T4 sequence (P48546 22-466): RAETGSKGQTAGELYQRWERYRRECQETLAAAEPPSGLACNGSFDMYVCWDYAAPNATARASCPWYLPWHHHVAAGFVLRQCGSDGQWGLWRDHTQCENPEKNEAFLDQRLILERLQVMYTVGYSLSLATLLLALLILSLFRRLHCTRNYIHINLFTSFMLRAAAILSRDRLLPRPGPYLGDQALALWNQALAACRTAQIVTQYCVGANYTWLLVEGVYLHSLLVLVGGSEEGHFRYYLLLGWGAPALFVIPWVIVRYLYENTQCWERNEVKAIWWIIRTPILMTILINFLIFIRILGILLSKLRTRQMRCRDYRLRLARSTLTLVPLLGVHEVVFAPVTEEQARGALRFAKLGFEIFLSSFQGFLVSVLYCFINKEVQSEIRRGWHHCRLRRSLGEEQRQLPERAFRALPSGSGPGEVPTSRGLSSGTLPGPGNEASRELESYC
In words: cAMP accumulation, antagonism (DiscoveRx HitHunter cAMP XS assay). The settings on record: for pIC50: IC50-value (GIPR antagonism), Examples 1 and 2, values of Tables 1B and 2; for cAMP antagonism, % inhib / IC50: Table 1B; for cAMP antagonism, % inhib / GIPR, Antagonism, % inhib / IC50: DiscoveRx; for cAMP antagonism, % inhib / GIPR, Antagonism, % inhib: COS-7 cells; for cAMP antagonism, % inhib: % inhibition of Emax; for GIPR, Antagonism, % inhib: Table 3A/3B; for IC50: cAMP antagonism, nM (IC50), transiently transfected COS-7 cells. Also on record: host or cells: COS-7 (transient, calcium phosphate; pCMV-Script vector). Format: cell-based. Put shortly: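 Transiently transfected COS-7 cells expressing human GIP receptor, pretreated with 1 mM IBMX in HBS 30 min at 37 °C. Agonism: ligand 30 min at 37 °C; antagonism: 10 min antagonist preincubation, then GIP at 50-80% maximal response for 20 min. cAMP measured by HitHunter cAMP XS.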

The target of data set [6] is T4, human GIP receptor. In words: cAMP accumulation, agonism (DiscoveRx HitHunter cAMP XS assay). Format: cell-based. More on the design: host or cells: COS-7 (transient, calcium phosphate; pCMV-Script vector). The settings on record: Table 1B; DiscoveRx; COS-7 cells. The method in brief: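 cAMP accumulation measured by HitHunter cAMP XS in COS-7 cells transiently expressing human GIP receptor, after 30 min in HBS with 1 mM IBMX at 37 °C. Antagonists preincubated 10 min before GIP giving 50-80% of maximum, then 20 min more; agonist mode used 30 min ligand exposure.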

The mark [7] stands for this setting: Göttingen, minipig, plasma, subcutaneous, Example 1, read-out: T1/2 (converted).
Setting [8] is: sc, Table 1B, species not given, unit h, LC/MS in Göttingen minipig plasma for these IDs, subcutaneous 1-10 nmol/kg, read-out: T½ (converted).

The structures appear in SMILES notation. pIC50: −log10 of the molar value. Like-named read-outs stand apart in the source and are kept apart here. *1 amine or outer side, *2 acyl side, *3 side chain or, on linkers, in order; H or OH if unused. Where a SMILES comes first, the peptide text is derived from it. Side-chain parts run from the residue outwards. The star is where a group is joined. C18 diacid = O=C(O)CCCCCCCCCCCCCCCCC(=O)*; γGlu = O=C(O)[C@H](CCC(=O)[*:2])N[*:1]; AEEA = NCCOCCOCC(=O)O

In the case of `CC[C@H](C)[C@H](NC(=O)[C@H](CO)NC(=O)[C@H](Cc1ccc(O)cc1)NC(=O)[C@H](CC(=O)O)NC(=O)[C@H](CO)NC(=O)[C@@H](NC(=O)[C@H](Cc1ccccc1)NC(=O)[C@@H](NC(=O)CNC(=O)[C@@H](N)CO)[C@@H](C)O)[C@@H](C)CC)C(=O)N[C@@H](C)C(=O)N[C@@H](CCSC)C(=O)N[C@@H](CC(=O)O)C(=O)N[C@@H](CCCNC(=N)N)C(=O)N[C@H](C(=O)N[C@@H](CCCCNC(=O)COCCOCCNC(=O)COCCOCCNC(=O)COCCOCCNC(=O)CC[C@H](NC(=O)CCCCCCCCCCCCCCCCC(=O)O)C(=O)O)C(=O)N[C@@H](CCC(N)=O)C(=O)N[C@@H](CCC(N)=O)C(=O)N[C@@H](CC(=O)O)C(=O)N[C@@H](Cc1ccccc1)C(=O)N[C@H](C(=O)N[C@@H](CC(N)=O)C(=O)N[C@@H](Cc1c[nH]c2ccccc12)C(=O)N[C@@H](CC(C)C)C(=O)N[C@@H](CC(C)C)C(=O)N[C@@H](C)C(=O)N[C@@H](CCC(N)=O)C(=O)N[C@@H](CCCNC(=N)N)C(N)=O)C(C)C)[C@@H](C)CC` [AT385] (H-SGTFISDYSIAMDRIK([AEEA-AEEA-AEEA-γGlu-C18 diacid])QQDFVNWLLAQR-NH2; N-terminus assumed), the half-life in data set [1] (setting [7]) was 20 h. Also, the half-life in data set [1] (setting [8]) was 20 h. In data set [2], the “GLP-1R, Antagonism, nM” value is on record as “No antagonism”. The “Glucagon R, Antagonism, nM” value in data set [3] was “No antagonism”. In addition, the “GLP-2R, Antagonism” value in data set [4] is reported as “No antagonism”. In data set [5], the pIC50 was 8.40; the “cAMP antagonism, % inhib” value was 100%; the “GIPR, Antagonism, % inhib” value came out at 100.0%; the half-maximal inhibitory concentration (IC50) was 4 nM. Besides, in data set [6], the “cAMP agonism, Emax” value is “No Agonism”.

Take `CC[C@H](C)[C@H](NC(=O)[C@H](CO)NC(=O)[C@H](Cc1ccc(O)cc1)NC(=O)[C@H](CC(=O)O)NC(=O)[C@H](CO)NC(=O)[C@@H](NC(=O)[C@H](Cc1ccccc1)NC(=O)[C@@H](NC(=O)CNC(=O)[C@@H](N)CO)[C@@H](C)O)[C@@H](C)CC)C(=O)N[C@@H](C)C(=O)N[C@@H](CCSC)C(=O)N[C@@H](CC(=O)O)C(=O)N[C@@H](CCCNC(=N)N)C(=O)N[C@H](C(=O)N[C@@H](CCCCNC(=O)CCCCCCCCCCCCCCCCC(=O)O)C(=O)N[C@@H](CCC(N)=O)C(=O)N[C@@H](CCC(N)=O)C(=O)N[C@@H](CC(=O)O)C(=O)N[C@@H](Cc1ccccc1)C(=O)N[C@H](C(=O)N[C@@H](CC(N)=O)C(=O)N[C@@H](Cc1c[nH]c2ccccc12)C(=O)N[C@@H](CC(C)C)C(=O)N[C@@H](CC(C)C)C(=O)N[C@@H](C)C(=O)N[C@@H](CCC(N)=O)C(=O)N[C@@H](CCCNC(=N)N)C(N)=O)C(C)C)[C@@H](C)CC` [AT393] (H-SGTFISDYSIAMDRIK(C18 diacid)QQDFVNWLLAQR-NH2; N-terminus assumed): the half-life in data set [1] (setting [7]) is 25 h. For the same molecule, the half-life in data set [1] (setting [8]) is 25 h. In addition, the “GLP-1R, Antagonism, nM” value in data set [2] is listed as “No antagonism”. In addition, the “Glucagon R, Antagonism, nM” value in data set [3] is reported as “No antagonism”. Further, the “GLP-2R, Antagonism” value in data set [4] is recorded as “No antagonism”. In addition, in data set [5], the pIC50 was 9.00; the “cAMP antagonism, % inhib” value is given as 100%; the “GIPR, Antagonism, % inhib” value is given as 100.0%; the half-maximal inhibitory concentration (IC50) turned out to be 1 nM. In addition, the “cAMP agonism, Emax” value in data set [6] was “No Agonism”.
